Key:
[1] = In vitro release of DOC in PBS pH 7.4; type: physicochemical; details: PBS pH 7.4, within 24 h
Source text: The mass spectrum of the HRK‐19 peptide was shown in Figure S1 of the Supporting Information. And it can be seen the mass of HRK‐19 peptide was 1959.80 g mol^−1, which was consistent with the theoretical mass (1959.20 g mol^−1). The HRK‐19 peptide had ≥95% purity, as confirmed by analytical reversed‐phase (RP)‐high performance liquid chromatography (HPLC) (Figure S2, Supporting Information). As shown in Figure S3 of the Supporting Information, the HRK‐19 peptide contains no apparent secondary structure such as helix and Beta turn. […] To prepare a tumor‐targeting peptide, in this study, Asn‐Gly‐Arg‐Arg‐Gly‐Asp (NGRRGD) and three amino acids (HAV) were conjugated with apoptosis‐inducing peptide sequence AVPIAQK, forming bifunctional peptide (HRK‐19 peptide, HAVRNGRRGDGGAVPIAQK). As shown schematically in Figure 2 A, self‐assembly of the DOC/peptide NPs was prepared by the film dispersion method. […] It can be seen that the DL, and particle size increased with increase of drug/copolymer ratio in feed, whereas, the EE decreased accordingly. In consideration of DL and stability, the sample of S2 was chose for further applications and was characterized in detail. The DL and EE of DOC were 4.52 ± 0.18% and 90.50 ± 3.68%. […]

A549 cells [2] = test: Microtubule formation (α-tubulin fluorescence microscopy); type: cell-based, human; details: A549, 4 h
Source text: Agents targeting microtubules are often used in cancer therapy. The taxanes act to stabilize microtubules and dampen microtubule dynamics to prevent the normal formation of mitotic spindles.34 Both paclitaxel and DOC can bind to β‐tubulin in assembled tubulin, thereby reducing depolymerization and leading to cell death.35 Therefore, we examined the effects of DOC on microtubule formation and cell apoptosis on A549 cells. […] However, at 10 × 10^−9 M, DOC begins to arrest A549 cells by interfering with the assembling/disassembling microtubule spindle.
Figure 5 The effects of DOC on the microtubule formation on the A549 cell lines. A549 cells were seeded on coverslip and treated with docetaxel of indicated concentrations for 4 h. The microtubule was determined by fluorescence microscopy. The red indicates the α‐tubulin and the blue is the DAPI stain for DNA. Scale bar: 20 µm.
For the expression and localization of α‐tubulin, cells were incubated with the antibodies against α‐tubulin (Abcam, USA) followed by incubation with TRITC‐conjugated secondary antibodies. The images were obtained using a confocal microscope (DM6000 CS, Leica, Germany).

A549 cells [3] = test: Cell apoptosis assay (Annexin V-FITC/PI flow cytometry); type: cell-based, human; details: A549, 24 h
Experimental: Given the effectiveness of transporting hydrophobic drug‐DOC into A549 cancer cells by the bifunctional peptide NPs, we carried out the cytotoxicity experiments to further evaluate the anticancer activity of DOC/peptide NPs on A549 by Flow cytometry analysis. Flow cytometry analysis was performed to monitor the percentage of cell apoptosis after the cells being stained by Annexin V‐Fluorescein isothiocyanate/propidium iodide (Annexin V‐FITC/PI) apoptosis detection kit, and A549 cells incubated in media only were used as control (Figure 6 A). The percentage of apoptosis of A549 cells (early and late apoptosis) incubated for 24 h with DOC/peptide containing DOC 5 × 10^−9 and 10 × 10^−9 M were 11.56 ± 0.91% and 20.66 ± 1.89%, respectively. For free DOC, they were 8.87 ± 0.79% and 15.73 ± 0.56%, respectively. Obviously, DOC‐loaded bifunctional peptide NPs induced significant cell apoptosis.
To investigate the apoptotic effect of the DOC/peptide NPs, flow cytometry was performed using an ESP Elite flow cytometer (BeckmaneCoulter, Miami, FL, USA) with FITC‐conjugated Annexin V/propidium iodide (PI, BD PharMingen) staining as per the manufacturer's instructions. A549 cells cultured in 6‐well plates were treated with DOC/peptide NPs, free DOC, and blank peptide. […] Both early apoptotic (Annexin V‐positive, PI‐negative) and late apoptotic (Annexin V‐positive and PI‐positive) cells were measured.

Structure (SMILES): CC(=O)O[C@@]12CO[C@@H]1C[C@H](O)[C@@]1(C)C(=O)[C@H](O)C3=C(C)[C@@H](OC(=O)[C@H](O)[C@@H](NC(=O)OC(C)(C)C)c4ccccc4)C[C@@](O)([C@@H](OC(=O)c4ccccc4)[C@H]21)C3(C)C [DOC, Docetaxel]
- Peak release of DOC, % of the total drug [1]: 85.37 ± 1.83%
- Concentration at which DOC begins to arrest cells by interfering with the microtubule spindle (A549 cells [2]): 10 nM
- Percentage of apoptosis (early and late apoptosis) (A549 cells [3]; DOC 5 × 10^−9 M): 8.87 ± 0.79%
- Percentage of apoptosis (early and late apoptosis) (A549 cells [3]; DOC 10 × 10^−9 M): 15.73 ± 0.56%

— publication PMC5396162, “Self‐Assembled Bifunctional Peptide as Effective Drug Delivery Vector with Powerful Antitumor Activity” (Advanced Science, 2017)
